Tests used:
TGFβ = TGFβ ELISA in brain homogenates of Tg2576 mice; assay type: in vivo, mouse; conditions: Ex 8; TM-treated Tg2576 mice
Procedure: Brain homogenates of left hemi-brains are used for detection of human Aβ40 and Aβ42 by ELISA, as previously described (J Gau J et al., Amer. J. Pathology, 160 2:731-738 […]). Homogenates are centrifuged at 7840×g for 5 minutes at 4 ° C. to remove insoluble material. A sandwich ELISA is performed on the supernatants using BAN50 as the capture antibody and either horseradish peroxidase-coupled BA-27 or BC-05 as the detection antibody for Aβ40 or Aβ42, respectively. BAN-50 is a monoclonal antibody specific for Aβ1-10. All samples are measured in triplicate. Standard curves for the ELISA are constructed using pure human Aβ40 and Aβ42 (Bachem). In addition to measurements of Aβ, a commercially available ELISA is used to detect TGFβ levels in brain homogenates of the two groups.

[1] = test system: carbon tetrachloride (CT) mouse model; test: Liver hydroxyproline and histology in the CT mouse model; assay type: in vivo; conditions: Ex 6
Procedure: The carbon tetrachloride (CT) mouse model produces much more liver fibrosis (cirrhosis) than the Con A model. In this model carbon tetrachloride is injected intraperitoneally twice weekly, and after 12 weeks, a well-established cirrhosis should be present. This can be evaluated histologically, and can be quantitated by measuring liver hydroxyproline, a major amino acid in collagen. The TM was started in TM treated animals at the beginning of week 5 and the animals were sacrificed at week 12.

[2] = test system: Wilson's disease patients; test: Open label study of TM for initial treatment of neurologically presenting Wilson's disease patients; assay type: in vivo, human
Description: The results in the first patient studied can be used to illustrate several points. For the first seven days, the patient received TM only with meals (tid with meals). This produced the immediate negative copper balance one would expect from the first mechanism of action (blockade of copper absorption when given with meals). After the first seven days, TM was given between meals as well (tid with meals, and tid between meals). This led to the immediate rise in plasma copper expected from absorption of TM into the blood, and formation of a complex of copper, TM, and albumin. The copper complexed with TM and albumin is unavailable for cellular uptake, and this copper is therefore non-toxic. There is a 1:1 stochiometric relationship between molybdenum and copper in this complex. Knowing the molybdenum level in the blood, and the ceruloplasmin level (ceruloplasmin also contains copper that is non-toxic), one can calculate how much of the plasma copper is not bound to one or the other. This so-called “free copper” (non-ceruloplasmin plasma copper) is the potentially toxic copper. When reduced to zero, the plasma copper-molybdenum “gap” is closed. This took 16 days in the first patient (9 days after adding the between meal doses). Since in the brain (and in other organs), free copper is in equilibrium with the blood, decreasing the blood free copper to a low level begins the process of lowering the brain level of free (toxic) copper.
The inventors have treated initially 56 Wilson's disease patients with TM, all of whom presented with neurological or psychiatric disease, in an open label study. These patients were all diagnosed by standard criteria. […] Some of them were treated briefly with other agents prior to this trial. Two patients had psychiatric but not neurological symptoms.
With three exceptions in the earliest part of the study, all patients received a dose of 20 mg tid with meals, or qid with three meals and a snack. Thus, the only difference between a patient receiving 120 mg and 140 mg total dose is that the former was receiving 20 mg tid, or 60 mg, with meals, and the latter was receiving 20 mg qid, or 80 mg with meals plus a snack. The rest of the total daily dose was divided up into three equal doses and given between meals.
Measuring trichloracetic acid (TCA) soluble copper of the plasma is somewhat useful in assessing the impact of TM therapy on copper metabolism in Wilson's disease. Generally, a high proportion of plasma copper in these patients is TCA soluble (it averaged 56% in patients which is 27 p.g/dl). All of the non-ceruloplasmin plasma copper is TCA soluble, and a somewhat variable portion of the ceruloplasmin copper is also TCA soluble. Because the ceruloplasmin levels are usually rather low in Wilson's disease, most of the plasma copper is TCA soluble. The copper in the TM/albumin/copper complex in the blood is TCA insoluble. Thus, as therapy proceeds, the fraction of the plasma copper that is TCA soluble becomes smaller. […] The TCA soluble fraction cannot be used as an absolute endpoint, for example attempting to reduce it to zero, because a small and somewhat variable soluble fraction is usually present due to plasma ceruloplasmin. However, the significant mean reduction from 27 to 15 p.g/dl illustrates the beneficial effect that TM therapy has on the status of the potentially toxic plasma copper in these patients. Further evidence of the desirable impact of TM therapy on copper metabolism is shown by reduction of mean urine copper values during the latter part of TM therapy, compared to baseline values.
TM has a quick and favorable impact on copper metabolism, reducing the levels of potentially toxic copper of the blood and as contemplated the rest of the body as well. The primary clinical objective in treatment of Wilson's disease is to gain control over copper toxicity while not allowing worsening of the disease or symptoms. […]

Cp = test: Serum Cp in the Con A mouse model; assay type: in vivo; conditions: Ex 5 Exp 1; after fourth Con A injection
Description: Twenty-four hours after each of the first three injections, one mouse from each group was bled, and serum ALT measured. In this experiment, TM was started in the TM treated mice before the first Con A injection. After the fourth injection of Con A, all the mice were bled for ALT and Cp measurements and the experiment terminated. The Cp levels in TM treated mice were 25-50% of non-TM treated animals.

Lysyl oxidase = Lysyl oxidase in the lungs, bleomycin model; assay type: in vivo, mouse; conditions: Ex 2 Exp 1; TM treated vs non-TM treated animals
TNFα = test: Lung TNFα mRNA by real time RT-PCR, bleomycin model; assay type: in vivo, mouse; conditions: Ex 2 Exp 1; bleomycin/TM; day 7
Procedure: Cytokine assays. Expression of TNFα and TGFβ was determined in lung tissues from the various experiments. TNFα mRNA was measured in total RNA isolated from lung tissue homogenates. Primer Express 2.0 software (Applied Biosystems, Foster City, Calif.) was used to design Taqman primers and MGB probes (6-FAM conjugated) for TNFα, which were then purchased from Applied Biosystems (PE/ABI, Foster City, Calif.). Primers and probes for GAPDH were purchased from PE/ABI. GAPDH mRNA was used as internal control to normalize the amount of input RNA. One-step real time RT-PCR was undertaken with Taqman One Step RT-PCR Master Mix (PE/ABI) using a GeneAmp 5700 Sequence Detection System (PE/ABI). Results were expressed as the threshold cycle (CT) at which an increase of reporter fluorescence (ΔRn) can first be detected. The levels of TNFα mRNA were normalized to the internal control GAPDH signals and expressed as 2^−ΔΔCT.

[3] = among the seven anemia patients

In the case of `[SH-].[SH-].[S]=[Mo]=[S]` [TM, tetrathiomolybdate], the “levels of TGFβ in brain homogenates” value (TGFβ) is reported as “significant reduction”, the liver histology ([1]; CT/TM treated liver) is reported as “essentially normal” and the “liver fibrosis as evaluated by hydroxyproline” value ([1]; CT/TM, after week 12) is reported as “blocks all fibrosis”. The “patients with reversible anemia/bone marrow depression” value ([2]; 56 patients) was “seven”, the “patients with elevation of transaminase values (serum AST and ALT)” value ([2]; all treated with 150 mg TM/day or higher) was “four of the patients” and the “patients with reduction in platelet count” value [2, 3] was “Three of the patients”. The “patients with reduction in white blood cell count” value [2, 3] was “four of the patients”, the fall in hemoglobin ([2]; average in the seven anemia patients) was 3.4% and the overtreatment incidence ([2]; dose of 180 mg/day or over) was 6 of 37. For the same molecule, the overtreatment incidence ([2]; dose of 150 or lower) was 1 of 13, the “patients with change of more than 5 units in quantitative neurological exam (significant worsening)” value ([2]; during weeks of TM administration, two patients) was 4% and the “time to close the plasma copper-molybdenum gap (free copper reduced to zero)” value ([2]; first patient, TM tid with meals, from day 7 also tid between meals) was 16 days. For the same molecule, the “quantitative speech exam scores” value ([2]; initial 8 weeks of TM therapy) was “No patient shows significant (more than 2.0 units) reduction in scores”, the “Cp levels in TM treated mice relative to non-TM treated animals” value (Cp) was 25-50% and the “lysyl oxidase activity in the lungs” value (Lysyl oxidase) was “not inhibited”. The “lung TNFα mRNA levels, bleomycin-induced increase” value (TNFα) was “almost completely, and significantly, inhibited this increase”.
